These results are taken from ChEMBL document CHEMBL1152560, “Substituted 2-arylbenzothiazoles as kinase inhibitors: hit-to-lead optimization” (Bioorg Med Chem, 2009).

What is called residual activity is the signal under treatment as a percentage of the control signal.

The target of test [1] is T1, Serine/threonine-protein kinase BRSK1 (Homo sapiens) (UniProt Q8TDC3).
T1 sequence (whole entry): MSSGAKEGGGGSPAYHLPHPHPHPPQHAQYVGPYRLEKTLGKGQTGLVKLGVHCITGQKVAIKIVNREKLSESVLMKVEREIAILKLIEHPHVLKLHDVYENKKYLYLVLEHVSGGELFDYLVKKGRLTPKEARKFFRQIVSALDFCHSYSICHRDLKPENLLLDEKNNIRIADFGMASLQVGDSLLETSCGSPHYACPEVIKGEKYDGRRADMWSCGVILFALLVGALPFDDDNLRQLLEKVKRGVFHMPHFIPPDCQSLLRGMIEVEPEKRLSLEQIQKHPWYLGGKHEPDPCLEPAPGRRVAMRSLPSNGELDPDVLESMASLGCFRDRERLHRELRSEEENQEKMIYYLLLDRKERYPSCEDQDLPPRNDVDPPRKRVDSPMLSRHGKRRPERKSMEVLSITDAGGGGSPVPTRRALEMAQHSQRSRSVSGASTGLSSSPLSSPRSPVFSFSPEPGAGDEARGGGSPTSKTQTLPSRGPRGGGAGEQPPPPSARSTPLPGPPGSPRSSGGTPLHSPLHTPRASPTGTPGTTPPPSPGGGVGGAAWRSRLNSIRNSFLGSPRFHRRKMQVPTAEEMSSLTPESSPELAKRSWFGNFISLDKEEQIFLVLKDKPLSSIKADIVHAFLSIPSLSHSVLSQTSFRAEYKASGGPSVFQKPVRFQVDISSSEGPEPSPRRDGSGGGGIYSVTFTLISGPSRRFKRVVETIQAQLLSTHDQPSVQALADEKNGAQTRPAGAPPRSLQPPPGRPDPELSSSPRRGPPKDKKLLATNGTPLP
Briefly: Residual activity of BRSK1 at 1 uM by microplate scintillation counting.

Test [2] deals with Ribosomal protein S6 kinase alpha-1 (Homo sapiens) (UniProt Q15418). Briefly: Residual activity of RPS6KA1 at 10 uM by microplate scintillation counting.
In test [3] the target is Serine/threonine-protein kinase PAK 2 (Homo sapiens) (UniProt Q13177). Nature of the test: Residual activity of PAK2 at 1 uM by microplate scintillation counting.
Test [4] addresses Casein kinase II subunit alpha' (Homo sapiens) (UniProt P19784). Nature of the test: Residual activity of CK2alpha2 at 10 uM by microplate scintillation counting.
Test [5] deals with Protein-tyrosine kinase 2-beta (Homo sapiens) (UniProt Q14289). Nature of the test: Residual activity of PYK2 at 0.1 uM by microplate scintillation counting.
Test [6] addresses Serine/threonine-protein kinase pim-2 (Homo sapiens) (UniProt Q9P1W9). Nature of the test: Residual activity of PIM2 at 0.1 uM by microplate scintillation counting.
Test [7] deals with T2, Serine/threonine-protein kinase TAO2 (Homo sapiens) (UniProt Q9UL54).
T2 sequence (whole entry): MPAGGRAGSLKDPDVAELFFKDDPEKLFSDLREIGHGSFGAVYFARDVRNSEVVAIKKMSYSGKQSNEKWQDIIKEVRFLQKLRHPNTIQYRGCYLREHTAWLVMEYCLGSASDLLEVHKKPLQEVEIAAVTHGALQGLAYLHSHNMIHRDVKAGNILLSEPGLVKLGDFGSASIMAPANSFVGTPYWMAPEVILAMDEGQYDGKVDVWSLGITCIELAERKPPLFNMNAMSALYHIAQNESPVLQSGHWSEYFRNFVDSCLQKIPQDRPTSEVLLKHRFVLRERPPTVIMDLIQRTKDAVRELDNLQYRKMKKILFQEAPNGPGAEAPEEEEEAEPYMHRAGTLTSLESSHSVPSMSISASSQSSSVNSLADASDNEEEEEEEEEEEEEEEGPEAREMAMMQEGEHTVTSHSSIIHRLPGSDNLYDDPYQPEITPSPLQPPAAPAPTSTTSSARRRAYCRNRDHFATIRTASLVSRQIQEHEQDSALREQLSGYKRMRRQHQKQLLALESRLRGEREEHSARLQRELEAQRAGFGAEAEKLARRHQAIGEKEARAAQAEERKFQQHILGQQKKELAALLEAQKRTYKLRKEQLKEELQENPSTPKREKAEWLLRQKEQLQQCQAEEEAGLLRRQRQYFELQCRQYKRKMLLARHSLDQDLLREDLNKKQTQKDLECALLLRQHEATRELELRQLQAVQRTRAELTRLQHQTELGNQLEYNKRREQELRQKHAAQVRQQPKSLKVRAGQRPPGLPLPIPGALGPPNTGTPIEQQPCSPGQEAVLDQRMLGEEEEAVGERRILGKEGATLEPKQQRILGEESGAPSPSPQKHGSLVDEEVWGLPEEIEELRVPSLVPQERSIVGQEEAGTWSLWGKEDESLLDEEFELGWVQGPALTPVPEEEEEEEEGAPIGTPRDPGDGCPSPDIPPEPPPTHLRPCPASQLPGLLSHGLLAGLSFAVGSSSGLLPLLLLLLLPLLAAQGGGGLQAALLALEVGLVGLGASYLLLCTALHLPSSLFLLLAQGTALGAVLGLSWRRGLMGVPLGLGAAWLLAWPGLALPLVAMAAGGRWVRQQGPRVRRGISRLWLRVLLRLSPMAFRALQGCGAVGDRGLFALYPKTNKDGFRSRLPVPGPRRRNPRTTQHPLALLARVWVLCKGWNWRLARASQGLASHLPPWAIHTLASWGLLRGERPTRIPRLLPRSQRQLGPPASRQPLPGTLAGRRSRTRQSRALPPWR
Briefly: Residual activity of TAOK2 at 10 uM by microplate scintillation counting.

Serine/threonine-protein kinase PAK 2 (Homo sapiens), sequence (Q13177 whole entry): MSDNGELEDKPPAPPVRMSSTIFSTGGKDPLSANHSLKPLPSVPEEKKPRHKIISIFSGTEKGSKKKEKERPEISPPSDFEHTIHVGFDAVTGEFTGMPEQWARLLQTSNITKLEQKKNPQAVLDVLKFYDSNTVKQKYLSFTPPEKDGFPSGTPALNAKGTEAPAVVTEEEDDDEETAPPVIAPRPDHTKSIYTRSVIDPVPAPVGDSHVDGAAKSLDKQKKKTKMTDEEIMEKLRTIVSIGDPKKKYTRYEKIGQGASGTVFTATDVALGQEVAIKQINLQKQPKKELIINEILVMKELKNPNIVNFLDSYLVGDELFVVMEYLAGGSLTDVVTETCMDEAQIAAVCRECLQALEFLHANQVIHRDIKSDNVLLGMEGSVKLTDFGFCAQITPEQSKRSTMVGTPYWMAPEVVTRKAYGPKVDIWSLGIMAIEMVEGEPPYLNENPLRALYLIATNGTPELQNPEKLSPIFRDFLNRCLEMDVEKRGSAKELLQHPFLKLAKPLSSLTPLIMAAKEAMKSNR
Casein kinase II subunit alpha' (Homo sapiens), sequence (P19784 whole entry, looked up): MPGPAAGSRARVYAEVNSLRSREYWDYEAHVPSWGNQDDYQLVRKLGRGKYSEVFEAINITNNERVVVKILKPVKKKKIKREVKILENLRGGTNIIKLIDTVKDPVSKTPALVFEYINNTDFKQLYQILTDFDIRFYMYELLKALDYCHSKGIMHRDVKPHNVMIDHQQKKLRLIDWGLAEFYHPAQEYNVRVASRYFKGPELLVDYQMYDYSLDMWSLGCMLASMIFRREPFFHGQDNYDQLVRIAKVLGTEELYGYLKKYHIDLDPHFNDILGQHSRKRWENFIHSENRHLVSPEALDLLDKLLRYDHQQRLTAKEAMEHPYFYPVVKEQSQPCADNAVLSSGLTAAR
Serine/threonine-protein kinase pim-2 (Homo sapiens), sequence (Q9P1W9 whole entry, looked up): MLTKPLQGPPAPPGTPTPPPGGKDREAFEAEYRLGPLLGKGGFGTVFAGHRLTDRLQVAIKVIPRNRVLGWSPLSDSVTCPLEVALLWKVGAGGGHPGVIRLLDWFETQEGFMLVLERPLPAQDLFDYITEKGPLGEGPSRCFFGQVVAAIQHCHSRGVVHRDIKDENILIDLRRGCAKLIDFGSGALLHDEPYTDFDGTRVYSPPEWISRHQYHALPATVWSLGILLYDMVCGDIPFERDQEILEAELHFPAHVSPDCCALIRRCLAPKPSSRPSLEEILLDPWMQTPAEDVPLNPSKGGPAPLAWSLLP
Protein-tyrosine kinase 2-beta (Homo sapiens), sequence (Q14289 whole entry, looked up): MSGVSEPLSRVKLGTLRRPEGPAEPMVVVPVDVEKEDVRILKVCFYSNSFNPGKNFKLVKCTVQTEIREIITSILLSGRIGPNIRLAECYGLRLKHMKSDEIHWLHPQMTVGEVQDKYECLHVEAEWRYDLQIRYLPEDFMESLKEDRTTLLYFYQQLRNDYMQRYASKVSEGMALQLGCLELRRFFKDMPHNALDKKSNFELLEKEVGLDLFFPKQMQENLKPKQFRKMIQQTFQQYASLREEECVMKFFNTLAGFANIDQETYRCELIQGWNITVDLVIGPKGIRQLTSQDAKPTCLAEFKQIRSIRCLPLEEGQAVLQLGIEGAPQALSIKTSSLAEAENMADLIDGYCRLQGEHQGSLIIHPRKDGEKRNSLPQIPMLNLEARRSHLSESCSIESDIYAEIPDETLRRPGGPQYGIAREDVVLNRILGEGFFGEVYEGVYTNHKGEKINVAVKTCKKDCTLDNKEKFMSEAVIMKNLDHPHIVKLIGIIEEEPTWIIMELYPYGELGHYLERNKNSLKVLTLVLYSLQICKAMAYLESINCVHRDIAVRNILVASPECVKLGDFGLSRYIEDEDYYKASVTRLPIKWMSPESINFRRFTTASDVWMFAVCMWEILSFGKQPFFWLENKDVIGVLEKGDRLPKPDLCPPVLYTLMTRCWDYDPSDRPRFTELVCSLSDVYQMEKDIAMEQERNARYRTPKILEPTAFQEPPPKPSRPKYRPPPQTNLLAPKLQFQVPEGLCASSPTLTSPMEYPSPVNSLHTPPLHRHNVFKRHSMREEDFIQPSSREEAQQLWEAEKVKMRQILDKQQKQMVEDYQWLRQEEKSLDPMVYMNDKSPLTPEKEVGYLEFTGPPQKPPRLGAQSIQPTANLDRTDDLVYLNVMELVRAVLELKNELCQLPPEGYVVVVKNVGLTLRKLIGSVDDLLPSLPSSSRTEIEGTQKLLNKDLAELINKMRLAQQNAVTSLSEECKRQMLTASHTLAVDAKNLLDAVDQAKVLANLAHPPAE
Ribosomal protein S6 kinase alpha-1 (Homo sapiens), sequence (Q15418 whole entry): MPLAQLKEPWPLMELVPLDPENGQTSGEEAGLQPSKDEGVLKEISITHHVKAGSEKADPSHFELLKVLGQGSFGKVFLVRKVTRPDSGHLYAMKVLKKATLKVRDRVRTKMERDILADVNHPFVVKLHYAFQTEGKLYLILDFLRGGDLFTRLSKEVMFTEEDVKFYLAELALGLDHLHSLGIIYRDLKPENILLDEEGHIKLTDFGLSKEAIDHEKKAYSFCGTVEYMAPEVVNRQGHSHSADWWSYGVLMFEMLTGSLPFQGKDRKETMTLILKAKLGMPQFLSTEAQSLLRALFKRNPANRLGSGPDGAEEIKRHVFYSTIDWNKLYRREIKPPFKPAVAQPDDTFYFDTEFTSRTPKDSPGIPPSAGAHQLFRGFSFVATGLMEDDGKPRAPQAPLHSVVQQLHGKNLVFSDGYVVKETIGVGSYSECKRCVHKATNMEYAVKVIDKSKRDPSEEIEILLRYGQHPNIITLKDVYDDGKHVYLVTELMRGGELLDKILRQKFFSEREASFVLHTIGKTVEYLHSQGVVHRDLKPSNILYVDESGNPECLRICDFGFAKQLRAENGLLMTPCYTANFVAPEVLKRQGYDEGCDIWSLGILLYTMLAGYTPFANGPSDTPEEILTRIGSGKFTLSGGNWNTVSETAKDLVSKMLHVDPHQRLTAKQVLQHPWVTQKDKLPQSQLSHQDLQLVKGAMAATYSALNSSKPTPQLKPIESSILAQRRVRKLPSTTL

With `COc1cc2c(Oc3ccc(-c4nc5ccccc5s4)cc3F)ncnc2cc1OCCCN1CCN(C)CC1`, the residual activity was 91% in test [1]; 222% in test [2]; 103% in test [3]; 116% in test [4]; 98% in test [5]; 94% in test [6]. Besides, the residual activity in test [7] amounted to 129%.

As to `COc1cc2c(Oc3ccc(-c4nc5ccccc5s4)cc3)ncnc2cc1OCCCN1CCN(C)CC1`, the residual activity turned out to be 91% in test [1]; 206% in test [2]; 124% in test [3]; 98% in test [4]; 102% in test [5]; 64% in test [6]. The residual activity in test [7] came to 141%.

As to `COc1cc2c(Oc3ccc(-c4nc5ccccc5s4)cc3)ncnc2cc1OCCCN1CCCC1`, the residual activity in test [1] was 91%; in test [2], 124%; in test [3], 102%; in test [4], 97%; in test [5] it was 103%; in test [6] it was 104%. In test [7], the residual activity was 122%.
